Results from patent US8093383B2, “P70 S6 kinase inhibitors” (Eli Lilly and Company, priority 2007, dated 2012).
Marks after values point to notes of the source that are not given here.

Tested on: HCT 116 human colon carcinoma cells
Assay: Determination of p70 S6K In Vivo Efficacy (HCT 116 xenograft tumor growth)
Design: species or system athymic nude mice
Protocol: HCT 116 human colon carcinoma cells (5×10^6) are subcutaneously implanted into the flank of athymic nude mice in 0.2 mL of matrigel. One week post-implantation, mice are dosed PO according to the pharmacokinetics and the pharmacodynamics of the molecule to maintain 30-50% or 60-90% pS6 Inhibition over a 24 hr period. Dosing is continued for at least 21 days. Tumor volumes are measured bi-weekly to evaluate drug related tumor growth reduction utilizing standard methods. At the end of the study, tumors are flash-frozen at harvest and blood is collected for the determination of parent compound plasma exposure. The compound of Example 5 was tested essentially as described above.

## Cl.FC(F)(F)c1cccc(-c2c[nH]c(C3CCN(c4ncnc5[nH]ncc45)CC3)n2)c1 [Example 5, 4-{4-[4-(3-(Trifluoromethyl)-phenyl)-1H-imidazol-2-yl]-piperidin-1-yl}-1H-pyrazolo[3,4-d]pyrimidine hydrochloride]
30 mg/kg PO (BID × 21), Day 8, mean of 10 animals
  Tumor Volume: 36.5 mm^3
30 mg/kg PO (BID × 21), Day 13, mean of 10 animals
  Tumor Volume: 58.7 mm^3
30 mg/kg PO (BID × 21), Day 16, mean of 10 animals
  Tumor Volume: 90.9 mm^3
30 mg/kg PO (BID × 21), Day 20, mean of 10 animals
  Tumor Volume: 134.6 mm^3
30 mg/kg PO (BID × 21), Day 23, mean of 10 animals
  Tumor Volume: 192.7 mm^3
30 mg/kg PO (BID × 21), Day 27, mean of 10 animals
  Tumor Volume: 296.3 mm^3
60 mg/kg PO (BID × 21), Day 8, mean of 10 animals ± standard deviation
  Tumor Volume: 28.8 ± 2.6^b mm^3
60 mg/kg PO (BID × 21), Day 13, mean of 10 animals ± standard deviation
  Tumor Volume: 42.1 ± 6.2*** mm^3
60 mg/kg PO (BID × 21), Day 16, mean of 10 animals ± standard deviation
  Tumor Volume: 72.1 ± 11.8*** mm^3
60 mg/kg PO (BID × 21), Day 20, mean of 10 animals ± standard deviation
  Tumor Volume: 139.0 ± 26.4*** mm^3
60 mg/kg PO (BID × 21), Day 23, mean of 10 animals ± standard deviation
  Tumor Volume: 188.4 ± 25.9*** mm^3
60 mg/kg PO (BID × 21), Day 27, mean of 10 animals ± standard deviation
  Tumor Volume: 280.0 ± 36.1*** mm^3
60 mg/kg PO (QD × 21), Day 8, mean of 10 animals ± standard deviation
  Tumor Volume: 30.6 ± 3.4^b mm^3
60 mg/kg PO (QD × 21), Day 13, mean of 10 animals ± standard deviation
  Tumor Volume: 57.8 ± 10.7** mm^3
60 mg/kg PO (QD × 21), Day 16, mean of 10 animals ± standard deviation
  Tumor Volume: 85.0 ± 13.3*** mm^3
60 mg/kg PO (QD × 21), Day 20, mean of 10 animals ± standard deviation
  Tumor Volume: 142.5 ± 18.4*** mm^3
60 mg/kg PO (QD × 21), Day 23, mean of 10 animals ± standard deviation
  Tumor Volume: 194.5 ± 25.7*** mm^3
60 mg/kg PO (QD × 21), Day 27, mean of 10 animals ± standard deviation
  Tumor Volume: 252.7 ± 34.4*** mm^3
